Legend:
Format in all cases: in vivo
[1] = system: passive cutaneous anaphylactic (PCA) reaction; assay: suppression of passive cutaneous anaphylactic (PCA) reaction, intravenous administration; settings: Rattus norvegicus, rats, i.v., just before injection of allergen, read-out: ED 100 (i.v.): intravenous dose which produces 100% inhibition of the PCA reaction
Description: (§1) In pharmacological tests the new compounds suppress the passive cutaneous anaphylactic (PCA) reaction resulting from combination of tissue-fixed reaginic antibodies with the appropriate antigenic material (termed reagin-allergen combination) and carried out in an essentially similar manner to that described by Ogilvie [Nature (Lond.), (1964), 204, 91-92; Immunology, (1967), 12, 112-131]. In the method used to test these compounds sera were obtained from rats which had been infected with larvae of the nematode parasite Nippostrongylus brasiliensis; as a result of the parasitic infestation reaginic antibodies are elaborated in the host mammal and are found in sera removed from such animals. Other, non-infected, rats received intradermal injections of appropriate dilutions of such sera and were then given the allergenic material along with Evans' blue dye intravenously forty-eight hours later.
(§2) The allergenic material consisted of supernatant fluid after centrifugation of homogenates of adult Nippostrongylus brasiliensis worms which had been macerated in Tyrode's solution. The sites of PCA reactions were visualised by the effusion of Evans' blue dye from the circulation into those areas as a result of increased capillary permeability caused by the release of biologically-active substances from cells where reagin-allergen combination had occurred. The new compounds when given intravenously to the rats just before injection of allergen, or administered orally thirty minutes before intravenous injection of allergen, were able to prevent the development of the PCA reaction, as shown below in Table I and Table II.

[2] = system: passive cutaneous anaphylactic (PCA) reaction; assay: suppression of passive cutaneous anaphylactic (PCA) reaction, oral administration; settings: Rattus norvegicus, rats, p.o., thirty minutes before intravenous injection of allergen, read-out: ED 50 (p.o.): oral dose which produces 50% inhibition of the PCA reaction
Description: as §1, §2

oral toxicity in mice = settings: 1000 mg/kg animal body weight, observation period of 3 days

SMILES | ED100 [1] [mg/kg] | ED50 [2] [mg/kg] | deaths during observation period (oral toxicity in mice)
CCC(=O)c1cc(CC)cc(NC(=O)c2nnn[nH]2)c1O [AA, 5'-ethyl-2'-hydroxy-3'-propionyltetrazole-5-carboxanilide] | 0.01 | 1.3 | –
CCC(=O)c1cc(C)cc(NC(=O)c2nnn[nH]2)c1O [BB, 2'-hydroxy-5'-methyl-3'-propionyltetrazole-5-carboxanilide] | 0.02 | 0.88 | –
COc1cc(Br)cc(NC(=O)c2nnn[nH]2)c1O [CC, 5'-bromo-2'-hydroxy-3'-methoxytetrazole-5-carboxanilide] | 0.05 | 16 | –
O=C(Nc1ccccc1O)c1nnn[nH]1 [Compound A, 2'-hydroxytetrazole-5-carboxanilide] | 0.2 | 5.5 | –
CC(=O)c1cc(C)cc(NC(=O)c2nnn[nH]2)c1O [Compound B, 3'-acetyl-2'-hydroxy-5'-methyltetrazole-5-carboxanilide] | 0.01 | 0.06 | no deaths occurred
CCc1cccc(NC(=O)c2nnn[nH]2)c1O [Compound C, 3'-ethyl-2'-hydroxytetrazole-5-carboxanilide] | 0.1 | 0.7 | –
CCc1cc(NC(=O)c2nnn[nH]2)c(O)c(C(C)=O)c1 [Compound D, 3'-acetyl-5'-ethyl-2'-hydroxytetrazole-5-carboxanilide] | 0.01 | 0.19 | –
CC(=NO)c1cc(C)cc(NC(=O)c2nn[nH]n2)c1O [Compound DD, 2'-hydroxy-3'-(1-hydroxyimino)ethyl-5'-methyltetrazole-5-carboxanilide] | 0.002 | – | –
CC(=O)c1cc([N+](=O)[O-])cc(NC(=O)c2nnn[nH]2)c1O [E, 3'-acetyl-2'-hydroxy-5'-nitrotetrazole-5-carboxanilide] | 0.02 | 0.04 | –
CON=C(C)c1cc(C)cc(NC(=O)c2nn[nH]n2)c1O [EE, 2'-hydroxy-3'-(1-methoxyimino)ethyl-5'-methyltetrazole-5-carboxanilide] | 0.02 | – | –
Cc1cc(NC(=O)c2nnn[nH]2)c(O)c(C(=O)C(C)C)c1 [G, 2'-hydroxy-3'-isobutyryl-5'-methyltetrazole-5-carboxanilide] | 0.02 | 3.2 | –
CC(=O)c1cc(C#N)cc(NC(=O)c2nnn[nH]2)c1O [H, 3'-acetyl-5'-cyano-2'-hydroxytetrazole-5-carboxanilide] | 0.01 | 0.4 | –
Cc1cc(NC(=O)c2nnn[nH]2)c(O)c(C(=O)C2CC2)c1 [I, 3'-cyclopropylcarbonyl-2'-hydroxy-5'-methyltetrazole-5-carboxanilide] | 0.02 | – | no deaths occurred
CC(=O)c1cc(F)cc(NC(=O)c2nnn[nH]2)c1O [K, 3'-acetyl-5'-fluoro-2'-hydroxytetrazole-5-carboxanilide] | 0.01 | – | –
CC(=O)c1cc(Br)cc(NC(=O)c2nnn[nH]2)c1O [L, 3'-acetyl-5'-bromo-2'-hydroxytetrazole-5-carboxanilide] | 0.05 | – | –
COc1cc(NC(=O)c2nnn[nH]2)c(O)c(C(C)=O)c1 [M, 3'-acetyl-2'-hydroxy-5'-methoxytetrazole-5-carboxanilide] | 0.01 | – | –
CCC(=O)c1cc(C#N)cc(NC(=O)c2nnn[nH]2)c1O [N, 5'-cyano-2'-hydroxy-3'-propionyltetrazole-5-carboxanilide] | 0.02 | – | –
CC(=O)c1cc(N)cc(NC(=O)c2nnn[nH]2)c1O [P, 3'-acetyl-5'-amino-2'-hydroxytetrazole-5-carboxanilide] | 0.05 | – | –
COc1cccc(NC(=O)c2nnn[nH]2)c1O [R, 2'-hydroxy-3'-methoxytetrazole-5-carboxanilide] | 0.02 | 2.9 | –
CCc1cc(NC(=O)c2nnn[nH]2)c(O)c(OC)c1 [S, 5'-ethyl-2'-hydroxy-3'-methoxytetrazole-5-carboxanilide] | 0.01 | 1.8 | –
COc1cc(C)cc(NC(=O)c2nnn[nH]2)c1O [T, 2'-hydroxy-3'-methoxy-5'-methyltetrazole-5-carboxanilide] | 0.02 | 6.5 | –
CCCC(=O)c1cc(C)cc(NC(=O)c2nnn[nH]2)c1O [U, 3'-butyryl-2'-hydroxy-5'-methyltetrazole-5-carboxanilide] | 0.05 | – | –
Cc1cc(NC(=O)c2nnn[nH]2)c(O)c(C(=O)N(C)C)c1 [V, 3'-(N,N-dimethylcarbamoyl)-2'-hydroxy-5'-methyltetrazole-5-carboxanilide] | 0.2 | – | –
COC(=O)c1cc(C)cc(NC(=O)c2nnn[nH]2)c1O [W, 2'-hydroxy-3'-methoxycarbonyl-5'-methyltetrazole-5-carboxanilide] | 0.05 | 5.6 | –
CCOC(=O)c1cc(C)cc(NC(=O)c2nnn[nH]2)c1O [X, 3'-ethoxycarbonyl-2'-hydroxy-5'-methyltetrazole-5-carboxanilide] | 0.01 | 36 | –
CCCc1cc(NC(=O)c2nnn[nH]2)c(O)c(C(C)=O)c1 [Y, 3'-acetyl-2'-hydroxy-5'-propyltetrazole-5-carboxanilide] | 0.01 | 0.46 | –
CC(=O)c1cccc(NC(=O)c2nnn[nH]2)c1O [Z, 3'-acetyl-2'-hydroxytetrazole-5-carboxanilide] | 0.005 | 0.06 | –
